What was measured:
Format in all cases: functional
Settings in all cases: read-out: GI
Phomopsis asparagi = test: Fungicidal activity against Phomopsis asparagi assessed as growth inhibition at 50 ppm relative to control
[1] = test system: Botryosphaeria berengeriana; test: Fungicidal activity against Botryosphaeria berengeriana assessed as growth inhibition at 50 ppm relative to control
[2] = test system: Brassica rapa subsp. oleifera; test: Herbicidal activity against Brassica rapa subsp. oleifera assessed as growth inhibition at 1.5 kg/ha applied to soil relative to control

With CC(=O)OC[C@H]1O[C@@H](NC(=S)NNS(=O)(=O)c2ccc(C)cc2)[C@H](OC(C)=O)[C@@H](OC(C)=O)[C@@H]1OC(C)=O the inhibition of growth at 50 ppm (Phomopsis asparagi) was 30% and the inhibition of growth at 50 ppm [1] was 30%.

CC(=O)OC[C@H]1O[C@@H](N2C(=O)CS/C2=N\NS(=O)(=O)c2ccc(C)cc2)[C@H](OC(C)=O)[C@@H](OC(C)=O)[C@@H]1OC(C)=O showed an inhibition of growth at 1500 g/ha [2] of 39.8%, an inhibition of growth at 50 ppm (Phomopsis asparagi) of 30% and an inhibition of growth at 50 ppm [1] of 30%.

With CC(=O)O[C@@H]1[C@@H](OC(C)=O)[C@H](OC(C)=O)CO[C@H]1NC(=S)NNS(=O)(=O)c1ccccc1 the inhibition of growth at 50 ppm (Phomopsis asparagi) was 30% and the inhibition of growth at 50 ppm [1] was 30%.
